Test results reported in patent US20130053434A1, “IRREVERSIBLE INHIBITORS USEFUL FOR THE TREATMENT OF KINASE-RELATED PATHOLOGIES” (CENTRE NATIONAL DE LA RECHERCHE SCIENTIFIQUE, priority 2009, published 2013).
Where two headings read alike, the source gives them in different places.

Experiments:
[1] = ester bond, DIAD/PPh3, toluene, 23.0 °C
[2] = system: orthotopically implanted RENCA-LN cells; experiment: orthotopic murine renal cell carcinoma (RENCA) model, in vivo efficacy; conditions: untreated group had two animals; groups of 12
Description: RENCA-LN cells were obtained and cultured as described above. Sixty female BALB/c mice of 5 to 6 weeks were orthotopically implanted RENCA-LN cells into the left kidney (4×10^5 cells in 25 μl aliquots into the subcapsular space through a flank incision, Day 0). The mice were randomly divided into 5 groups of 12 mice each. On day 2, therapy was initiated. Animals in the vehicle control group (group 1) received 10 ml/kg Vehicle (PBS w/o Ca/Mg, 10% DMSO, 40% PEG-300) i.p. once daily until day 19. Animals of positive control group (group 2) received 40 mg/kg Sunitinib (Sutent®) p.o. once daily until day 20. Animals of treatment group 3 and 4 received 20 mg/kg of 3 once daily and every other day respectively (i.p.). Animals of treatment group 5 received 20 mg/kg of 5 once daily (i.p.). Due to partial weight loss, therapy in Groups 3 and 5 was suspended on days 11 and 12 and stopped on day 17. On day 20, the study was terminated and a necropsy performed. All animals were weighted, anaesthetised by isoflurane and killed by exsanguination. Two animals in group 1 were found dead on day 19 and 1 animal in group 3 and 5 on day 11 and 9 respectively. At necropsy, primary tumor weight and volume, lung weight and number of lung metastases were determined. Primary tumor tissues were collected and divided into two parts. One part of each tumor was snap-frozen in liquid nitrogen and stored at −80° C. whereas the other part was analyzed via ex vivo bioluminescence imaging. During the course of the study, the growth of the orthotopically implanted RENCA tumors was monitored on days 7, 14 and 19 using in vivo bioluminescence imaging. For this purpose, luciferin was injected intraperitoneally (i.p.) into the mice and light emission was measured post injection (10 min) using a NightOWL LB 981 bioluminescence imaging system (Berthold Technologies, Germany). The migration of RENCA tumor cells into the lung (metastasis) was analyzed post necropsy by counting nodules and using the luciferase assay. For this purpose, lungs were collected, homogenized, and assayed for luciferase activity using the kit from Promega (E1501) according to the manufacturer's instructions. Protein concentrations were determined using a Bradford assay and used to normalize luciferase activities (except for the primary tumor). A histological examination of the tumor vasculature was performed. For this purpose, cryosections of primary tumor tissues (thickness=5-10 μm) from the snap-frozen portion of the organ and blood vessels were visualized by immunohistochemical staining for CD 31 (PECAM-1; PharMingen, San Diego, Calif.). […] Statistical analysis of efficacy data was done using the Mann Whitney test.

SMILES: CCOCOc1cc2c(c(OCOCC)c1)C(=O)O[C@@H](C)C/C=C\C(OC(=O)c1ccccc1)[C@H]1OC(C)(C)O[C@H]1CCO2 (some centres unmarked)
- ring closure, yield of all isomers ([1]; from CCOCOc1cc(OCC[C@@H]2OC(C)(C)O[C@@H]2C(/C=C\C[C@@H](C)O)OC(=O)c2ccccc2)c(C(=O)O)c(OCOCC)c1, 10.7 mM, 2.0 h): 80%

SMILES: CCOCOc1cc2c(c(OCOCC)c1)C(=O)O[C@@H](C)C/C=C(/F)C(OC(=O)c1ccccc1)[C@H]1OC(C)(C)O[C@H]1CCO2 (some centres unmarked)
- ring closure, yield of all isomers ([1]; from CCOCOc1cc(OCC[C@@H]2OC(C)(C)O[C@@H]2C(OC(=O)c2ccccc2)/C(F)=C\C[C@@H](C)O)c(C(=O)O)c(OCOCC)c1, 10.5 mM, 1.5 h, 2 steps): 70%

SMILES: CCOCOc1cc2c(c(OCOCC)c1)C(=O)O[C@@H](C)C/C=C(/F)C(OC(=O)c1ccccc1)[C@H]1OC(C)(C)O[C@H]1C/C=C/2 (some centres unmarked)
- ring closure, yield of all isomers ([1]; from CCOCOc1cc(/C=C/C[C@@H]2OC(C)(C)O[C@@H]2C(OC(=O)c2ccccc2)/C(F)=C\C[C@@H](C)O)c(C(=O)O)c(OCOCC)c1, 10.2 mM, 1.5 h, 2 steps): 74%

SMILES: CCN(CC)CCNC(=O)c1c(C)[nH]c(/C=C2\C(=O)Nc3ccc(F)cc32)c1C [sunitinib, reference compound]
- animals having a high count of lung metastatic nodules [2]: 5

SMILES: CCOCOc1cc2c(c(OCOCC)c1)C(=O)O[C@@H](C)C/C=C\C(OC(=O)c1ccccc1)[C@H]1OC(C)(C)O[C@H]1CC/C=C/2 (some centres unmarked)
- ring closure, yield of all isomers ([1]; from CCOCOc1cc(/C=C/CC[C@@H]2OC(C)(C)O[C@@H]2C(/C=C\C[C@@H](C)O)OC(=O)c2ccccc2)c(C(=O)O)c(OCOCC)c1, 10.5 mM, 2.0 h): 70%
